The source of these data is ChEMBL document CHEMBL5233212, “Recent advance in the development of novel, selective and potent FGFR inhibitors” (Eur J Med Chem, 2020).

SMILES strings stand for the structures. Where only a bound is given, the exact number is not on record here.

The term IC50 denotes the concentration that gives 50% inhibition. The inhibition is the share of the control response that was lost under treatment.

Assay [1] has as its target T1, Fibroblast growth factor receptor 1 (Homo sapiens, UniProt P11362). Briefly: Inhibition of FGFR1 (unknown origin) in presence of ATP by caliper mobility shift assay.
Target sequence in this assay (P11362 whole entry): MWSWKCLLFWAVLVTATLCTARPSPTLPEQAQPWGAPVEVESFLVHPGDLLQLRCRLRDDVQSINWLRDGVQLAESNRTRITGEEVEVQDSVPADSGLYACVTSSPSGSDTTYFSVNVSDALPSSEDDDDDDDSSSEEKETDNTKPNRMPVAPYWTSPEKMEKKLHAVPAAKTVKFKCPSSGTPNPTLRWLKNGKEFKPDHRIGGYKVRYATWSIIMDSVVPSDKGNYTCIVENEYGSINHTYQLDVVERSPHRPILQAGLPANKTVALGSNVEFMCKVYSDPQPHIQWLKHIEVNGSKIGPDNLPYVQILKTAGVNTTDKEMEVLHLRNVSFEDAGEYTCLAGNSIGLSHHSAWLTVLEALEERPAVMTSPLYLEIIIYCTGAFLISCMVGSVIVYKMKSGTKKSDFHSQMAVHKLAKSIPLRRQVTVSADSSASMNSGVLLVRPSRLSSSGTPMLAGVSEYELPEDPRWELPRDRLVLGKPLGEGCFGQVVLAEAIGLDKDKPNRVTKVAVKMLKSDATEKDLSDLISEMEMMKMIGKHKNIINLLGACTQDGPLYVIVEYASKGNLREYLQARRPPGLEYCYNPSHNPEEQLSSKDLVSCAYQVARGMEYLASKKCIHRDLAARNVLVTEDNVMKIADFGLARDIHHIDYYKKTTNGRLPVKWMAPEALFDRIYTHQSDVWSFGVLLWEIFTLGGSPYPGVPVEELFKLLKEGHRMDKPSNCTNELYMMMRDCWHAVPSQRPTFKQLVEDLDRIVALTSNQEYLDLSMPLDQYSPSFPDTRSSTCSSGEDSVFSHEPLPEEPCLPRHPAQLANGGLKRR
Another assay concerns NCI-H1581. Briefly: Antiproliferative activity against human NCI-H1581 cells assessed as inhibition of cell growth incubated for 72 hrs by MTT colorimetric assay. The format is functional, cell-based. The settings on record: NCI-H1581, 72 h. (In general: Tetrazolium dyes change colour on reduction, which living cells bring about.)
For another assay, the system named is KG-1. Briefly: Antiproliferative activity against human KG-1 cells assessed as inhibition of cell growth incubated for 72 hrs by MTT colorimetric assay. In kind it is functional, cell-based. The conditions noted are these: KG-1, 72 h.
Assay [2] in a line: Antiproliferative activity against human KATO III stomach cancer cell line assessed as inhibition of cell growth incubated for 72 hrs by MTT colorimetric assay. The format is functional, cell-based.
The test system of a further assay is SNU-16. The assay can be described thus: Antiproliferative activity against human SNU-16 cells assessed as inhibition of cell growth incubated for 72 hrs by MTT colorimetric assay. The format is functional, cell-based. The settings on record: SNU-16, 72 h.
A further assay deals with RT-112. Briefly: Antiproliferative activity against human RT-112 cells assessed as inhibition of cell growth incubated for 72 hrs by MTT colorimetric assay. In kind it is functional, cell-based. The conditions noted are these: RT-112, 72 h.
The target in assay [3] is T1, Fibroblast growth factor receptor 1. The assay can be described thus: Inhibition of human recombinant FGFR1 using Poly (Glu, Tyr)4:1 as substrate at 10 nM incubated for 90 mins in presence of ATP by ELISA based spectrophotometer assay. A general note: In an ELISA, binding on a coated surface is turned into a signal by an enzyme label.
Target sequence in this assay (P11362 22-822 limits assumed): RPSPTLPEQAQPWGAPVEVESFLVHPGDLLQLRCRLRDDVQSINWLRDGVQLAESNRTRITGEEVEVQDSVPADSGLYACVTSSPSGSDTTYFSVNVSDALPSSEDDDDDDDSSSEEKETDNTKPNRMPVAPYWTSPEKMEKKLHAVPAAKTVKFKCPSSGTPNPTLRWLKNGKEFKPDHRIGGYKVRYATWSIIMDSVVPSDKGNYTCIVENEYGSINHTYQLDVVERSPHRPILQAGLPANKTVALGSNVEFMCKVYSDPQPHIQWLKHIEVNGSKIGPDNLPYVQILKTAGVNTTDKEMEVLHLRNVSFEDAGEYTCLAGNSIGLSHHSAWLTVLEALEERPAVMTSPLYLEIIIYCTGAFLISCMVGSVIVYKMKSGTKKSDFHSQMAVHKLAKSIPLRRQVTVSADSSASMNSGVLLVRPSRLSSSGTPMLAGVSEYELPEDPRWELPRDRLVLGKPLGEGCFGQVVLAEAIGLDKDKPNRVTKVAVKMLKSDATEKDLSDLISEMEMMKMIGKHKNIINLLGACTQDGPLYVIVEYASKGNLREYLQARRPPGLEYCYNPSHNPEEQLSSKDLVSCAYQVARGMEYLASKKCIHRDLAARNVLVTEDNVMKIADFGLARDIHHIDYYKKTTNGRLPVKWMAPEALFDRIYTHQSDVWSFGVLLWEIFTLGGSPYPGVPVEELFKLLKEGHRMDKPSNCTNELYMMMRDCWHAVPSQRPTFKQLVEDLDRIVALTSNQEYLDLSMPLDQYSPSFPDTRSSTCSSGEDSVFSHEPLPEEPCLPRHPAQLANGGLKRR
Assay [4] concerns the target Fibroblast growth factor receptor (Homo sapiens, UniProt P22607+P11362+P22455+P21802). The assay can be described thus: Inhibition of FGFR (unknown origin) using […] incubated for 60 mins by Kinase-Glo Plus luminescence assay. In kind it is protein assay. On the technique in general: Kinase-Glo reads ATP consumption through a luciferase reaction.

The target of assay [5] is Tyrosine-protein kinase BTK (Homo sapiens, UniProt Q06187). The assay can be described thus: Inhibition of human BTK (382 to 659 residues) expressed in baculovirus infected Sf21 insect cells preincubated for 15 mins followed by ATP addition and measured upto 180 mins by microfluidic capillary electrophoresis analysis.
Sequence of Tyrosine-protein kinase BTK (Q06187 whole entry, the tested form may be a part): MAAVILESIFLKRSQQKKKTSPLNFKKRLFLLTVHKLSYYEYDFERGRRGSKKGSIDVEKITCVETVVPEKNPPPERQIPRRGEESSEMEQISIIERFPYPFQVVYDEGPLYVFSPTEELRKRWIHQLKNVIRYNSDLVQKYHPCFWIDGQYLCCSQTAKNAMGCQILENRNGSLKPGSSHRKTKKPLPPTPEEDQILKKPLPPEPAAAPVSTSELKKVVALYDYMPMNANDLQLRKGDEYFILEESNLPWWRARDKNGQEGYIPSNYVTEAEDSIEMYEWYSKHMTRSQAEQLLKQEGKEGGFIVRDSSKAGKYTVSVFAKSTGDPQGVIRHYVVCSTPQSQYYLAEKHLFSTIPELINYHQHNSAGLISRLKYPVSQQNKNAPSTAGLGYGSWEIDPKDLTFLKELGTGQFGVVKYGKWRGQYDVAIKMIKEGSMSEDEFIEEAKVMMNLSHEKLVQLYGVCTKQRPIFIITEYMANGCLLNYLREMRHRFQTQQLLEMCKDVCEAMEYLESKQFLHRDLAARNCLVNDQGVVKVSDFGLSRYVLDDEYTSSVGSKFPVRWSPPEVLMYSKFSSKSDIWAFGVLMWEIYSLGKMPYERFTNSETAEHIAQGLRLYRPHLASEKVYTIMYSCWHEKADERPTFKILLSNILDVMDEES

Turning to `CCC(=O)Oc1ccc(/C=C2\CC/C(=C\c3ccc(OC(=O)CC)c(OC)c3)C2=O)cc1OC`, in assay [1], the half-inhibitory concentration (IC50) was determined as 3000 nM.
With `Cc1n[nH]c2ccc(-c3cc(N[C@@H](CO)c4ccccc4)cnc3-c3cc(F)ccc3O)cc12`, the half-maximal inhibitory concentration (IC50) is 391 nM with NCI-H1581; 14.5 nM in the assay on KG-1; 156 nM in assay [2]; 24.8 nM with SNU-16; 122 nM in the assay on RT-112.
For the molecule `COc1cc(/C=C2\CC/C(=C\c3ccc(OC(=O)C(C)C)c(OC)c3)C2=O)ccc1OC(=O)C(C)C`, in assay [1], the IC50 is 2600 nM.
On to `Cn1cc(-c2cnc3cnn(S(=O)(=O)c4ccccc4)c3n2)cn1`, for which, in assay [3], the inhibition was more than 90%.
`Cc1nc(OCC(=O)N/N=C/c2ccc(Cl)cc2)c2c(C)nn(-c3ccccc3)c2n1`: in assay [4], the IC50 worked out at 9.59 µM.
In the case of `O=S(=O)(c1cn(CCF)cn1)n1ncc2ncc(-c3cn[nH]c3)nc21`, in assay [3], the inhibition was determined as 93.3%.
In turn, `CNc1ncc2cc(-c3cc(OC)cc(OC)c3Cl)c(=O)n(CCc3ccc(NC(=O)/C(C#N)=C/C(C)(C)N)cc3)c2n1` yielded a concentration for half-maximal inhibition (IC50) in assay [5] of 0.5 nM.
